Our source for the IC50 values is US20160130278A1 (TAISHO PHARMACEUTICAL CO., LTD, priority 2013, published 2016).

pIC50: −log10 of the molar value.

The assay deals with T1, human type 1 glycine transporter (GlyT1) (Homo sapiens, UniProt P48067).
T1 construct: T98G cells (glioma cells) expressing human type 1 glycine transporter (GlyT1) were used
T1 sequence (P48067 1-706): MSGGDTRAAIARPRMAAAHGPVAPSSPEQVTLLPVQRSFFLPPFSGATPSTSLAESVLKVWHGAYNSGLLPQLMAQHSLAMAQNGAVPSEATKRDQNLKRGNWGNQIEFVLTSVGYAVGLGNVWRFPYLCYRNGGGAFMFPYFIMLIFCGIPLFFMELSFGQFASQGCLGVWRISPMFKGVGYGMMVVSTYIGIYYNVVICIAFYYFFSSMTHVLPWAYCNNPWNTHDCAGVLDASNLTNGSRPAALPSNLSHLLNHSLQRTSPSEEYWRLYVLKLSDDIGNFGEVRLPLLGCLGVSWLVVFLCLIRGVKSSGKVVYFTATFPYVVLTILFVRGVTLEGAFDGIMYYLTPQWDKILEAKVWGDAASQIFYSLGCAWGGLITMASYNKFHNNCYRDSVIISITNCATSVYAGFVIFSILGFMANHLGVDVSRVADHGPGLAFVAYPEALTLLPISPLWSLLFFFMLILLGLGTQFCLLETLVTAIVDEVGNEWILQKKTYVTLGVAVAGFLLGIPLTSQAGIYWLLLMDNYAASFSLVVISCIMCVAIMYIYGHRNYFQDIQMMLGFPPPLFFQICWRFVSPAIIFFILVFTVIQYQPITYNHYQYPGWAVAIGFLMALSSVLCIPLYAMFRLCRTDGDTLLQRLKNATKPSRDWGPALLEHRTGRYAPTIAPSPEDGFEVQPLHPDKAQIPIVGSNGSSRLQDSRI
The assay can be described thus: Glycine uptake inhibition experiment ([3H]glycine uptake). The assay is classed as cell-based. The note with it: GlyT1. The essentials:
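T98G glioma cells expressing human GlyT1 were pretreated 10 min with compound in HEPES buffer pH 7.4 (0.2% BSA), then incubated with compound plus 250 nM final [3H]glycine for 15 min at room temperature. Intracellular radioactivity was counted after NaOH lysis; 10 μM ALX5407 defined non-specific uptake. IC50 came from 10^−9–10^−5 M curves.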

A word on the pIC50: it is the negative decadic logarithm of the IC50, by convention in mol/L. Lower therefore signals a high IC50. Consider `Cc1cccc(C(=O)NC(c2cccc(F)c2Cl)[C@]2(O)CC[C@@H](F)CC2)c1Cl` (single isomer, unassigned) [Compound 287, 2-chloro-N-[(2-chloro-3-fluorophenyl)(cis-4-fluoro-1-hydroxycyclohexyl)methyl]-3-methylbenzamide], for which the negative-log IC50 (pIC50) was 6.02.

As to `O=C(NC(c1cccc(F)c1Cl)[C@]1(O)CC[C@@H](F)CC1)c1cccc(F)c1Cl` (single isomer, unassigned) [Compound 288, 2-chloro-N-[(2-chloro-3-fluorophenyl)(cis-4-fluoro-1-hydroxycyclohexyl)methyl]-3-fluorobenzamide], the pIC50 is 6.00.

For `COc1cccc(C(=O)NC(c2cccc(F)c2Cl)[C@]2(O)CC[C@@H](F)CC2)c1Cl` (single isomer, unassigned) [Compound 289, 2-chloro-N-[(2-chloro-3-fluorophneyl)(cis-4-fluoro-1-hydroxycyclohexyl)methyl]-3-methoxybenzamide], the pIC50 was 5.80.

The compound `O=C(NC(c1cccc(F)c1Cl)[C@]1(O)CC[C@@H](F)CC1)c1nc(C(F)(F)F)ccc1Cl` (single isomer, unassigned) [Compound 290, 3-chloro-N-[(2-chloro-3-fluorophenyl)(cis-4-fluoro-1-hydroxycyclohexyl)methyl]-6-(trifluoromethyl)pyridine-2-carboxamide] had a pIC50 of 6.05.

The compound `O=C(NC(c1ccc(Cl)nc1)[C@]1(O)CC[C@@H](F)CC1)c1nccc(C(F)(F)F)c1Cl` (single isomer, unassigned) [Compound 291, 3-chloro-N-[(6-chloropyridin-3-yl)(cis-4-fluoro-1-hydroxycyclohexyl)methyl]-4-(trifluoromethyl)pyridine-2-carboxamide] had a pIC50 of 6.05.

The compound `O=C(NC(c1cccc(F)c1Cl)[C@]1(O)CC[C@@H](F)CC1)c1cc(C(F)(F)F)ccc1Cl` (single isomer, unassigned) [Compound 292, 2-chloro-N-[(2-chloro-3-fluorophenyl)(cis-4-fluoro-1-hydroxycyclohexyl)methyl]-5-(trifluoromethyl)benzamide] showed a pIC50 of 6.92.

For the compound `COc1ccc(Cl)c(C(=O)NC(c2cccc(F)c2Cl)[C@]2(O)CC[C@@H](F)CC2)c1` (single isomer, unassigned) [Compound 293, 2-chloro-N-[(2-chloro-3-fluorophenyl)(cis-4-fluoro-1-hydroxycyclohexyl)methyl]-5-methoxybenzamide], the pIC50 is 6.35.

`Cc1ccc(Cl)c(C(=O)NC(c2cccc(F)c2Cl)[C@]2(O)CC[C@@H](F)CC2)c1` (single isomer, unassigned) [Compound 294, 2-chloro-N-[(2-chloro-3-fluorophenyl)(cis-4-fluoro-1-hydroxycyclohexyl)methyl]-5-methylbenzamide] showed a pIC50 of 6.00.

Turning to `O=C(NC(c1cccc(F)c1Cl)[C@]1(O)CC[C@@H](F)CC1)c1cc(F)ccc1Cl` (single isomer, unassigned) [Compound 295, 2-chloro-N-[(2-chloro-3-fluorophenyl)(cis-4-fluoro-1-hydroxycyclohexyl)methyl]-5-fluorobenzamide], the pIC50 is 5.68.

On to `CS(=O)(=O)c1ccc(Cl)c(C(=O)NC(c2cccc(F)c2Cl)[C@]2(O)CC[C@@H](F)CC2)c1` (single isomer, unassigned) [Compound 296, 2-chloro-N-[(2-chloro-3-fluorophenyl)(cis-4-fluoro-1-hydroxycyclohexyl)methyl]-5-(methylsuflonyl)benzamide], for which the pIC50 was 5.46.

For the compound `O=C(NC(c1cccc(F)c1Cl)[C@]1(O)CC[C@@H](F)CC1)c1cc(O)ccc1Cl` (single isomer, unassigned) [Compound 297, 2-chloro-N-[(2-chloro-3-fluorophenyl)(cis-4-fluoro-1-hydroxycyclohexyl)methyl]-5-hydroxybenzamide], the pIC50 is 5.82.

For `O=C(NC(c1cccc(F)c1Cl)[C@]1(O)CC[C@@H](F)CC1)c1ccc(C(F)(F)F)cc1Cl` (single isomer, unassigned) [Compound 298, 2-chloro-N-[(2-chloro-3-fluorophenyl)(cis-4-fluoro-1-hydroxycyclohexyl)methyl]-4-(trifluoromethyl)benzamide], the negative-log IC50 (pIC50) is 6.39.

Consider `Cc1cccc(Cl)c1C(=O)NC(c1cccc(F)c1Cl)[C@]1(O)CC[C@@H](F)CC1` (single isomer, unassigned) [Compound 299, 2-chloro-N-[(2-chloro-3-fluorophenyl)(cis4-fluoro-1-hydroxycyclohexyl)methyl]-6-methylbenzamide], for which the pIC50 is 6.21.

`COc1cccc(Cl)c1C(=O)NC(c1cccc(F)c1Cl)[C@]1(O)CC[C@@H](F)CC1` (single isomer, unassigned) [Compound 300, 2-chloro-N-[(2-chloro-3-fluorophenyl)(cis-4-fluoro-1-hydroxycyclohexyl)methyl]-6-methoxybenzamide] showed a pIC50 of 5.92.

As to `O=C(NC(c1cccc(F)c1Cl)[C@]1(O)CC[C@@H](F)CC1)c1c(F)cccc1Cl` (single isomer, unassigned) [Compound 301, 2-chloro-N-[(2-chloro-3-fluorophenyl)(cis-4-fluoro-1-hydroxycyclohexyl)methyl]-6-fluorobenzamide], the pIC50 was 5.96.

`O=C(NC(c1cccc(F)c1Cl)[C@]1(O)CC[C@@H](F)CC1)c1nccnc1Cl` (single isomer, unassigned) [Compound 302, 3-chloro-N-[(2-chloro-3-fluorophenyl)(cis-4-fluoro-1-hydroxycyclohexyl)methyl]pyrazine-2-carboxamide]: the pIC50 was 5.26.

The compound `O=C(NC(c1ncccc1Cl)[C@]1(O)CC[C@@H](F)CC1)c1nccc(C(F)(F)F)c1Cl` (single isomer, unassigned) [Compound 303, 3-chloro-N-[(3-chloropyridin-2-yl)(cis-4-fluoro-1-hydroxycyclohexyl)methyl]-4-(trifluoromethyl)pyridine-2-carboxmaide] had a pIC50 of 5.40.

For the compound `O=C(NC(c1cccc(F)c1Cl)[C@]1(O)CC[C@@H](F)CC1)c1ccc(C(F)(F)F)nc1Cl` (single isomer, unassigned) [Compound 304, 2-chloro-N-[[2-chloro-3-fluorophenyl)(cis-4-fluoro-1-hydroxycyclohexyl)methyl]-6-(trifluoromethyl)pyridine-3-carboxamide], the pIC50 was 6.54.

`O=C(NC(c1cccc(F)c1Cl)[C@]1(O)CC[C@@H](F)CC1)c1cc(Cl)nnc1Cl` (single isomer, unassigned) [Compound 305, 3,6-dichloro-N-[(2-chloro-3-fluorophenyl)(cis-4-fluoro-1-hydroxycyclohexyl)methyl]pyridazine-4-carboxamide] showed a pIC50 of 6.00.

`O=C(NC(c1cccc(F)c1Cl)[C@]1(O)CC[C@@H](F)CC1)c1c(Cl)cccc1C(F)(F)F` (single isomer, unassigned) [Compound 306, 2-chloro-N-[(2-chloro-3-fluorophenyl)(cis-4-fluoro-1-hydroxycyclohexyl)methyl]-6-(trifluoromethyl)benzamide]: the pIC50 was 6.17.

With `O=C(NC(c1cccc(F)c1Cl)[C@]1(O)CC[C@@H](F)CC1)c1ccc(F)cc1Cl` (single isomer, unassigned) [Compound 307, 2-chloro-N-[(2-chloro-3-fluorophenyl)(cis-4-fluoro-1-hydroxycyclohexyl)methyl]-4-fluorobenzamide], the pIC50 was 5.89.
